The values that follow come from patent US10344019B2 (priority 2010, dated 2019).

Read-outs that look alike come from different tables or passages of the source.

Common to all, as to format: cell-based
The test system of assay [1] is HCV 1a RLuc cells (dicistronic genotype 1a H77 replicon, RLuc reporter). Kind of assay: microbe, parasite or virus in culture. Particulars: Hepatitis C virus, read-out: 1a. The method, boiled down: (§1)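 Replicon cells stably carrying the listed RLuc-encoding dicistronic replicons were seeded and treated with DMSO serial dilutions of compound (10 mM stocks) diluted into culture medium. After 72 h, cells were lysed and Renilla luciferase activity measured. EC50 was derived by non-linear regression.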

Assay [2] deals with HCV 1b RLuc cells (dicistronic genotype 1b Con1 replicon, RLuc reporter). The assay can be described thus: microbe, parasite or virus in culture. Particulars: Hepatitis C virus, read-out: 1b (nM). Summed up:
as §1

Assay [3] has as its system HCV 2a JFH-1 Rluc cells (dicistronic genotype 2a JFH-1 replicon, RLuc reporter). The assay can be described thus: microbe, parasite or virus in culture. Particulars: Hepatitis C virus, read-out: 2a JFH. Summed up:
as §1

The subject of assay [4] is HCV 2b Rluc cells (NS5A chimeric genotype 2a JFH-1 replicon with genotype 2b MD2b-1 NS5A gene, M31 present). The assay can be described thus: microbe, parasite or virus in culture. The settings on record: Hepatitis C virus, read-out: 2b. The method, boiled down: as §1
The test system of assay [5] is HCV 3a RLuc cells (NS5A chimeric genotype 1b Con1 replicon with consensus genotype 3a NS5A gene). The assay can be described thus: microbe, parasite or virus in culture. The settings on record: Hepatitis C virus. Summed up:
as §1

In assay [6] the test system is HCV 4a Rluc cells (NS5A chimeric genotype 1b Con1 replicon with genotype 4a NS5A gene). The assay can be described thus: microbe, parasite or virus in culture. Particulars: Hepatitis C virus, read-out: 4a. The method, boiled down: as §1
The subject of assay [7] is Q30R in genotype 1a NS5A, 1a Rluc replicon transfected into Huh-7 cured-51 cells. The assay can be described thus: HCV replicon assay, resistance mutant 1a Q30R. Particulars: Hepatitis C virus, Huh-7, read-out: 1a Q30R. Summed up:
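Cells were Huh-7 cured-51 transfected with replicon RNA of a genotype 1a H77 RLuc replicon carrying site-directed Q30R in NS5A.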

Assay [8] concerns HCV 2a Rluc cells (NS5A chimeric genotype 2a JFH-1 replicon with genotype 2a J6 strain NS5A gene, M31 present). The assay can be described thus: HCV replicon reporter assay, genotype 2a J6 (M31 present). Particulars: Hepatitis C virus, read-out: 2a J6. Summed up: as §1
For orientation: In antiviral work, replicon cells carry a viral genome segment that copies itself.

[9] abbreviates: read-out: 3a, genotype 3a replicon.
[10] abbreviates: genotype 2a JFH-1 RLuc replicon.
Setting [11] is: read-out: 3a, genotype 3a NS5A chimeric replicon.

As to `COC(=O)N[C@H](C(=O)N1[C@@H]2C[C@@H]2C[C@H]1c1ncc(-c2cc3c4c(c2)OCc2cc(-c5cnc([C@@H]6C[C@H]7C[C@H]7N6C(=O)[C@@H](NC(=O)OC)C(C)C)[nH]5)cc(c2-4)OC3)[nH]1)C(C)C` [Example 414], the EC50 was 0.001 to 0.999 nM in assay [1] (genotype 1a replicon); 0.022 nM in assay [2]; 0.001 to 0.999 nM in assay [3] (genotype 2a JFH-1 replicon); 1 to 44 nM in assay [4]; 0.001 to 0.99 nM in assay [5] (setting [9]); 0.001 to 0.99 nM in assay [6]. For the same compound, the EC50 in assay [7] and in assay [8] was 1 to 44 nM throughout.

For the compound `COC(=O)N[C@H](C(=O)N1C[C@@H](C)C[C@H]1c1nc2ccc3cc4c(cc3c2[nH]1)OCc1cc(-c2cnc([C@@H]3C[C@H](C)CN3C(=O)[C@H](NC(=O)OC)c3ccccc3)[nH]2)ccc1-4)C(C)C` [Example 573], the EC50 in assay [1] (genotype 1a H77 RLuc replicon) is 0.001 to 0.999 nM; in assay [2] it was 0.03 nM; in assay [3] (setting [10]), 0.001 to 0.999 nM; in assay [4], 0.001 to 0.999 nM; in assay [5] (setting [11]), 0.001 to 0.99 nM; in assay [6], 0.001 to 0.99 nM. The EC50 in assay [7] and in assay [8] was 0.001 to 0.999 nM each time.

As to `COC[C@H]1C[C@@H](c2ncc(-c3ccc(-c4ccc(-c5cnc([C@@H]6C[C@H]7C[C@H]7N6C(=O)[C@@H](NC(=O)OC)C(C)C)[nH]5)cc4)cc3)[nH]2)N(C(=O)[C@H](NC(=O)C2CC2)c2ccccc2)C1` [Example 527], the EC50 in assay [1] (genotype 1a H77 RLuc replicon) is 0.001 to 0.999 nM; in assay [2] it was 0.022 nM; in assay [3] (setting [10]) it was 0.001 to 0.999 nM; in assay [4], 0.001 to 0.999 nM; in assay [5] (setting [11]) it was 0.001 to 0.99 nM; in assay [6], 0.001 to 0.99 nM. For the same compound, the EC50 in assay [7] and in assay [8] was 0.001 to 0.999 nM in each case.

Regarding `COC[C@H]1C[C@@H](c2nc3ccc4cc(-c5ccc6c(ccc7nc([C@@H]8C[C@H]9C[C@H]9N8C(=O)[C@H](NC(=O)OC)c8ccccc8)[nH]c76)c5)ccc4c3[nH]2)N(C(=O)[C@@H](NC(=O)OC)C(C)C)C1` [Example 548], the EC50 in assay [1] (genotype 1a H77 RLuc replicon) is 0.001 to 0.999 nM; in assay [2] it was 0.006 nM; in assay [3] (setting [10]), 0.001 to 0.999 nM; in assay [4], 0.001 to 0.999 nM; in assay [5] (setting [11]), 0.001 to 0.99 nM; in assay [6], 0.001 to 0.99 nM. The EC50 in assay [7] and in assay [8] was 0.001 to 0.999 nM throughout.

Consider `COC(=O)N[C@H](C(=O)N1C[C@@H](C)C[C@H]1c1ncc(-c2ccc3c(c2)COc2cc4c(ccc5nc([C@@H]6C[C@H](C)CN6C(=O)[C@H](NC(=O)OC)c6ccccc6)[nH]c54)cc2-3)[nH]1)C(C)C` [Example 582], for which the EC50 in assay [1] (genotype 1a H77 RLuc replicon) was 0.001 to 0.999 nM; in assay [2] it was 0.01 nM; in assay [3] (setting [10]), 0.001 to 0.999 nM; in assay [4], 0.001 to 0.999 nM; in assay [5] (setting [11]) it was 0.001 to 0.99 nM; in assay [6], 0.001 to 0.99 nM. The EC50 in assay [7] and in assay [8] was 0.001 to 0.999 nM throughout.

`COC[C@H]1C[C@@H](c2nc3ccc4cc5c(cc4c3[nH]2)OCc2cc(-c3cnc([C@@H]4CCCN4C(=O)[C@H](NC(=O)OC)c4ccccc4)[nH]3)ccc2-5)N(C(=O)[C@@H](NC(=O)OC)C(C)C)C1` [Example 544]: the EC50 in assay [1] (genotype 1a H77 RLuc replicon) was 0.001 to 0.999 nM; in assay [2], 0.026 nM; in assay [3] (setting [10]), 0.001 to 0.999 nM; in assay [4] it was 0.001 to 0.999 nM; in assay [5] (setting [11]) it was 0.001 to 0.99 nM; in assay [6] it was 0.001 to 0.99 nM. The EC50 in assay [7] and in assay [8] was 0.001 to 0.999 nM in each case.

With `COC(=O)N[C@H](C(=O)N1CCC[C@H]1c1ncc(-c2cc3c4c(c2)OCc2cc(-c5cnc([C@@H]6CCCN6C(=O)[C@H](NC(=O)OC)c6ccccc6)[nH]5)cc(c2-4)OC3)[nH]1)C(C)C` [Example 25c], the EC50 in assay [1] (72 h, Table 1, genotype 1a H77 replicon, 72 hours) was 0.001 to 0.999 nM; in assay [2] (72 h), 0.031 nM; in assay [3] (72 h, Table 1, genotype 2a JFH-1 replicon, 72 hours) it was 0.001 to 0.999 nM; in assay [4], 0.001 to 0.999 nM; in assay [5] (read-out: 3a, Table 1, genotype 3a NS5A chimeric replicon), 0.001 to 0.99 nM; in assay [6] it was 0.001 to 0.99 nM. In addition, the values for the EC50 in assay [7] and in assay [8] were 0.001 to 0.999 nM and 1 to 44 nM, respectively.

Take `COCC(=O)N[C@@H](C(=O)N1C[C@@H](COC)C[C@H]1c1nc2ccc3cc(-c4ccc5c(ccc6nc([C@@H]7C[C@H](C)CN7C(=O)[C@@H](NC(=O)OC)C(C)C)[nH]c65)c4)ccc3c2[nH]1)c1ccccc1` [Example 550]: the EC50 in assay [1] (genotype 1a H77 RLuc replicon) was 0.001 to 0.999 nM; in assay [2] it was 0.013 nM; in assay [3] (setting [10]), 0.001 to 0.999 nM; in assay [4], 0.001 to 0.999 nM; in assay [5] (setting [11]), 0.001 to 0.99 nM; in assay [6], 0.001 to 0.99 nM. In addition, the EC50 in assay [7] and in assay [8] was 0.001 to 0.999 nM throughout.

In the case of `COC(=O)N[C@H](C(=O)N1CCC[C@H]1c1nc2ccc3cc(-c4ccc5c(ccc6nc([C@@H]7[C@@H]8CC[C@@H](C8)N7C(=O)[C@@H](NC(=O)OC)C(C)C)[nH]c65)c4)ccc3c2[nH]1)C(C)C` [Example 339], the EC50 in assay [1] (genotype 1a replicon) was 0.001 to 0.999 nM; in assay [2] it was 0.026 nM; in assay [3] (genotype 2a JFH-1 replicon), 0.001 to 0.999 nM; in assay [4], 1 to 44 nM; in assay [5] (setting [9]), 0.001 to 0.99 nM; in assay [6], 0.001 to 0.99 nM. Also, the EC50 in assay [7] fell in the range of 1 to 44 nM; in assay [8] it was 0.001 to 0.999 nM.

On to `COC[C@H]1C[C@@H](c2nc3ccc4cc(-c5ccc6c(ccc7nc([C@@H]8C[C@H](SCC(F)(F)F)CN8C(=O)[C@@H](NC(=O)OC)C(C)C)[nH]c76)c5)ccc4c3[nH]2)N(C(=O)[C@H](NC(=O)OC)c2ccccc2)C1` [Example 584], for which the EC50 in assay [1] (genotype 1a H77 RLuc replicon) is 0.001 to 0.999 nM; in assay [2] it was 0.015 nM; in assay [3] (setting [10]), 0.001 to 0.999 nM; in assay [4], 0.001 to 0.999 nM; in assay [5] (setting [11]), 0.001 to 0.99 nM; in assay [6] it was 0.001 to 0.99 nM. For the same compound, the EC50 in assay [7] and in assay [8] was 0.001 to 0.999 nM each time.

On to `COC[C@H]1C[C@@H](c2nc3ccc4cc5c(cc4c3[nH]2)OCc2cc(-c3cnc([C@@H]4C[C@H](C)CN4C(=O)[C@@H](NC(=O)OC)C(C)C)[nH]3)ccc2-5)N(C(=O)[C@@H](NC(=O)OC)C(C)C)C1` [Example 562], for which the EC50 was 0.001 to 0.999 nM in assay [1] (genotype 1a H77 RLuc replicon); 0.019 nM in assay [2]; 0.001 to 0.999 nM in assay [3] (setting [10]); 0.001 to 0.999 nM in assay [4]; 0.001 to 0.99 nM in assay [5] (setting [11]); 0.001 to 0.99 nM in assay [6]. Also, the EC50 in assay [7] and in assay [8] was 0.001 to 0.999 nM throughout.

As to `COC(=O)N[C@H](C(=O)N1[C@H]2CC[C@H](C2)[C@H]1c1nc2ccc3cc(-c4ccc(-c5cnc([C@@H]6CCCN6C(=O)[C@H](NC(=O)OC)c6ccccc6)[nH]5)cc4)ccc3c2[nH]1)C(C)C` [Example 424], the EC50 in assay [1] (genotype 1a replicon) was 0.001 to 0.999 nM; in assay [2], 0.028 nM; in assay [3] (genotype 2a JFH-1 replicon), 0.001 to 0.999 nM; in assay [4], 0.001 to 0.999 nM; in assay [5] (setting [9]), 0.001 to 0.99 nM; in assay [6], 0.001 to 0.99 nM. For the same compound, the figures for the EC50 in assay [7] and in assay [8] were 1 to 44 nM and 0.001 to 0.999 nM, respectively.

Take `CC#Cc1cc2nc([C@@H]3CCCN3C(=O)[C@@H](NC(=O)OC)C(C)C)[nH]c2c2ccc(-c3ccc4c(ccc5nc([C@@H]6C[C@H](COC)CN6C(=O)[C@H](NC(=O)OC)c6ccccc6)[nH]c54)c3)cc12` [Example 581]: the EC50 is 0.001 to 0.999 nM in assay [1] (genotype 1a H77 RLuc replicon); 0.007 nM in assay [2]; 0.001 to 0.999 nM in assay [3] (setting [10]); 0.001 to 0.999 nM in assay [4]; 0.001 to 0.99 nM in assay [5] (setting [11]); 0.001 to 0.99 nM in assay [6]. Moreover, the EC50 in assay [7] and in assay [8] was 0.001 to 0.999 nM in each case.
